Assay results as given in patent US6838237B2, “Antigenically reactive regions of the hepatitis a virus polyprotein” (The United States of America as represented by the …, priority 1996, dated 2005).
Values joined by “and” are separate entries in the source; they are usually repeats but may differ in a detail not shown here. Equal values may be shown once.

How the values were obtained:
anti-HAV-negative sera = assay: EIA for anti-HAV: synthetic peptides reacted with anti-HAV-negative sera; assay type: binding, human; settings: experiment 1: sera 1:100, cutoff P/N 3.0
In short: (§1)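 Peptides at 10 mg/ml in 0.1 M PBS pH 7.5 adsorbed to wells 12 h at room temperature; sera diluted in PBS-Tween with 10% goat serum, incubated 60 min at 37 °C. Readout OD493 as P/N ratio, cutoff 3.0 (negative mean plus ≥3.5 SD).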

anti-HAV-positive sera = assay: EIA for anti-HAV: synthetic peptides adsorbed to wells, reacted with anti-HAV-positive acute sera; assay type: binding, human; settings: for Reactivity with acute sera (reactive/tested): experiment 1: sera 1:100, anti-human IgG-HRP, cutoff P/N 3.0; for Reactivity with acute sera (percent of sera reactive): experiment 1: sera 1:100, cutoff P/N 3.0; for P/N for acute sera (mean) / P/N for acute sera (range, in parentheses): OD493 positive/negative ratio of reactive sera
In short: as §1

## FSQAKISLFYTEEHEIMKFS [YK-1319]
anti-HAV-negative sera
  Reactivity with negative sera (reactive/tested): 2/51
anti-HAV-positive sera
  Reactivity with acute sera (reactive/tested): 13/48
  Reactivity with acute sera (percent of sera reactive): 27.1%
anti-HAV-positive sera; experiment 1
  P/N for acute sera (mean): 3.87
  P/N for acute sera (range, in parentheses): (3.14-5.01)

## DHMSIYKFMGRSHFLCTFTF [YK-1276]
anti-HAV-negative sera
  Reactivity with negative sera (reactive/tested): 0/46
anti-HAV-positive sera
  immunoreactivity with anti-HAV-positive sera (in words): broad and strong antigenic reactivity
  Reactivity with acute sera (reactive/tested): 17/41
  Reactivity with acute sera (percent of sera reactive): 41.5%
anti-HAV-positive sera; experiment 1
  P/N for acute sera (mean): 4.38
  P/N for acute sera (range, in parentheses): (3.15-5.62)

## RGKGEGLPGMCGGALVSSNQ [YK-1390]
anti-HAV-negative sera
  Reactivity with negative sera (reactive/tested): 1/27
anti-HAV-positive sera
  Reactivity with acute sera (reactive/tested): 10/41
  Reactivity with acute sera (percent of sera reactive): 24.4%
anti-HAV-positive sera; experiment 1
  P/N for acute sera (mean): 6.62
  P/N for acute sera (range, in parentheses): (3.52-13.98)

## EVGSHQVEPLRTSVDKPGSK [YK-1210]
anti-HAV-negative sera
  Reactivity with negative sera (reactive/tested): 0/48
anti-HAV-positive sera
  Reactivity with acute sera (reactive/tested): 15/46
  Reactivity with acute sera (percent of sera reactive): 32.6%
anti-HAV-positive sera; experiment 1
  P/N for acute sera (mean): 7.31
  P/N for acute sera (range, in parentheses): (3.93-20.47)

## RMYWGPAISYFHLNPGFHTG [YK-1414]
anti-HAV-negative sera
  Reactivity with negative sera (reactive/tested): 0/27
anti-HAV-positive sera
  Reactivity with acute sera (reactive/tested): 1/41
  Reactivity with acute sera (percent of sera reactive): 2.4%
anti-HAV-positive sera; experiment 1
  P/N for acute sera (mean): 3.35

## HFKDPQYPVWELTIRVWSEL [YK-1222]
anti-HAV-negative sera
  Reactivity with negative sera (reactive/tested): 0/46
anti-HAV-positive sera
  Reactivity with acute sera (reactive/tested): 2/41
  Reactivity with acute sera (percent of sera reactive): 4.9%
anti-HAV-positive sera; experiment 1
  P/N for acute sera (mean): 4.29

## FWRGDLVFDFQVFPTKYHSG [YK-1248]
anti-HAV-negative sera
  Reactivity with negative sera (reactive/tested): 0/46
anti-HAV-positive sera
  Reactivity with acute sera (reactive/tested): 3/41
  Reactivity with acute sera (percent of sera reactive): 7.3%
anti-HAV-positive sera; experiment 1, single sera listed with semicolon
  P/N for acute sera (individual values): 3.16 and 3.2

## LYNEQFAVQGLLRYHTYARF [YK-1215]
anti-HAV-negative sera
  Reactivity with negative sera (reactive/tested): 0/46
anti-HAV-positive sera
  immunoreactivity with anti-HAV-positive sera (in words): not found immunoreactive
  Reactivity with acute sera (reactive/tested): 10/41
  Reactivity with acute sera (percent of sera reactive): 24.4%
anti-HAV-positive sera; experiment 1
  P/N for acute sera (mean): 5.29
  P/N for acute sera (range, in parentheses): (3.41-8.83)

## INNVNLYYVFSKIFGKSPVF [YK-1424]
anti-HAV-negative sera
  Reactivity with negative sera (reactive/tested): 0/27
anti-HAV-positive sera
  Reactivity with acute sera (reactive/tested): 3/41
  Reactivity with acute sera (percent of sera reactive): 7.3%
anti-HAV-positive sera; experiment 1
  P/N for acute sera (mean): 6.69
  P/N for acute sera (range, in parentheses): (3.48-10.83)

## AGDLESSVDDPRSEEDKRFE [YK-1313]
anti-HAV-negative sera
  Reactivity with negative sera (reactive/tested): 3/51
anti-HAV-positive sera
  immunoreactivity with anti-HAV-positive sera (in words): broad and strong antigenic reactivity
  Reactivity with acute sera (reactive/tested): 18/48
  Reactivity with acute sera (percent of sera reactive): 37.5%
anti-HAV-positive sera; experiment 1
  P/N for acute sera (mean): 15.79
  P/N for acute sera (range, in parentheses): (3.0-108.06)

## KINLADRMLGLSGVQEIKEQ [YK-1331]
anti-HAV-negative sera
  Reactivity with negative sera (reactive/tested): 0/51
anti-HAV-positive sera
  Reactivity with acute sera (reactive/tested): 13/48
  Reactivity with acute sera (percent of sera reactive): 27.1%
anti-HAV-positive sera; experiment 1
  P/N for acute sera (mean): 5.71
  P/N for acute sera (range, in parentheses): (3.71-10.3)

## NIGTGTSAYTSLNVLARFTD [YK-1224]
anti-HAV-negative sera
  Reactivity with negative sera (reactive/tested): 0/46
anti-HAV-positive sera
  Reactivity with acute sera (reactive/tested): 9/41
  Reactivity with acute sera (percent of sera reactive): 22.0%
anti-HAV-positive sera; experiment 1
  P/N for acute sera (mean): 3.53
  P/N for acute sera (range, in parentheses): (3.09-4.17)
